From paper PMC7652251, “Anti-aging Effects of Mangosteen Peel Extract and Its Phytochemical Compounds: Antioxidant Activity, Enzyme Inhibition and Molecular Docking Simulation” (Tropical Life Sciences Research, 2020)
pIC50: −log10 of the molar value.

Assays:
[1] = target: T1, Collagenase from Clostridium histolyticum; assay: absorbance […] nm, FALGPA hydrolysis; format: biochemical, Hathewaya histolytica; conditions: N-[3-(2-furyl)acryloyl]-Leu-Gly-Pro-Ala 1 mM, Tricine 50 mM pH 7.5, 37°C, 20 min pre-incubation
T1 construct: gene colG

[2] = target: T2, porcine pancreas elastase (Sus scrofa, UniProt P00772); assay: absorbance […] nm, p-nitroanilide release; format: biochemical
T2 construct: gene CELA1; native enzyme from porcine pancreas, commercial
T2 sequence (P00772 27-266): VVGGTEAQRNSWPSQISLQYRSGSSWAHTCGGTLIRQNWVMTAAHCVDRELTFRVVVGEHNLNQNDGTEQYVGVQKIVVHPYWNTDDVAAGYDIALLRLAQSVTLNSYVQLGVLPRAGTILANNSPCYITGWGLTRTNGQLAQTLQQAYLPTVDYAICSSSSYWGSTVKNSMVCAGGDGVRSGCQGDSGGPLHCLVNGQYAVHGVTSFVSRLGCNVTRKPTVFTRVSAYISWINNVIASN

[3] = target: T3, mushroom tyrosinase; assay: absorbance […] nm, L-DOPA oxidation; format: biochemical; conditions: L-DOPA 1.5 mM stock (20 μL added), potassium phosphate 20 mM pH 6.8, room temperature, 15 min pre-incubation
T3 construct: gene PPO1; PPO3 (2Y9X) is only the docking model

[4] = target: T4, bovine testes hyaluronidase type I-S (Bos taurus, UniProt F1MTV1); assay: turbidity […] nm, hyaluronic acid with acidic albumin; format: biochemical; conditions: phosphate 300 mM pH 5.35, 37°C, 45 min
T4 construct: gene SPAM1; native enzyme from bovine testes, commercial
T4 sequence (F1MTV1 36-553): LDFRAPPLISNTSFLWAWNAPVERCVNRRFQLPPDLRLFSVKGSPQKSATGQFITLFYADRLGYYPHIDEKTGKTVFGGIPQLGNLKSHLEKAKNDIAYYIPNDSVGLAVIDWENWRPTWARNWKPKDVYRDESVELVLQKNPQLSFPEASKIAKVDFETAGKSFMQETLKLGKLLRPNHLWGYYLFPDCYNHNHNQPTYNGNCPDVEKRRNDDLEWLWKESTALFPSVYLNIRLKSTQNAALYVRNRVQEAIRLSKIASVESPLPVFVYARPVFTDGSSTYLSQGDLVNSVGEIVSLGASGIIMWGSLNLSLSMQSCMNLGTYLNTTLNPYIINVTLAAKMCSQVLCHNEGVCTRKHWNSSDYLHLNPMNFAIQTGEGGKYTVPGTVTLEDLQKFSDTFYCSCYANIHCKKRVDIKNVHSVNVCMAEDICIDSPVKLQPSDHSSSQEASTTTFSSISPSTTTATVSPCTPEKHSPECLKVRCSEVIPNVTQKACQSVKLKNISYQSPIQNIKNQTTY

SMILES	pIC50 [1]	pIC50 [2]	pIC50 [3]	pIC50 [4]
COc1c(O)cc2oc3cc(O)c(CC=C(C)C)c(O)c3c(=O)c2c1CCC(C)(C)O [Garcinone D]	3.80	4.30	3.60	3.69
CC(C)=CCc1c(O)cc2oc3cc(O)c(O)c(CC=C(C)C)c3c(=O)c2c1O [Gamma-mangostin]	3.85	3.81	3.90	4.22
CC(C)=CCc1c(O)cc2oc3cc(O)c(O)c(CCC(C)(C)O)c3c(=O)c2c1O [Garcinone C]	4.10	4.31	3.80	3.74
COc1c(O)cc2oc3cc(O)c(CC=C(C)C)c(O)c3c(=O)c2c1CC=C(C)C [Alpha-mangostin]	4.62	4.30	3.76	4.40
